In US9187467B2, “2-phenyl benzothiazole linked imidazole compounds as potential anticancer agents and process for the preparation thereof” (Council of Scientific and Industrial Research, priority 2012, dated 2015):
Like-named read-outs stand apart in the source and are kept apart here.

Experiments:
Assay type in all cases: cell-based, human
K-562 = test: SRB anticancer assay, leukemia; settings: Homo sapiens, K562; K-562, 48 h
HCT-116 = test: SRB anticancer assay, colon; settings: Homo sapiens, HCT-116, 48 h
SNB-19 = test: SRB anticancer assay, CNS; settings: Homo sapiens, SNB-19, 48 h
SNB-75 = test: SRB anticancer assay, CNS; settings: Homo sapiens, SNB-75, 48 h
U251 = test: SRB anticancer assay, CNS; settings: Homo sapiens, U-251; U251, 48 h
OVCAR-5 = test: SRB anticancer assay, ovarian; settings: Homo sapiens, OVCAR-5, 48 h
786-0 = test: SRB anticancer assay, renal; settings: Homo sapiens, 786-0, 48 h
RXF 393 = test: SRB anticancer assay, renal; settings: Homo sapiens, RXF 393, 48 h
MDA-MB-231/ATCC = test: SRB anticancer assay, breast; settings: Homo sapiens, MDA-MB-231, 48 h, 48 h, read-out: GI50
BT-549 = test: SRB anticancer assay, breast; settings: Homo sapiens, BT-549, 48 h
SK-MEL-2 = test: SRB anticancer assay, melanoma; settings: Homo sapiens, SK-MEL-2, 48 h
Breast cancer cell lines = test: SRB anticancer assay, panel result
Protocol: (§1) The compounds were evaluated for anticancer activity against sixty human cancer cells derived from nine cancer types (leukemia cell line, non-small-cell lung cell line, colon cell line, CNS cell line, melanoma cell line, ovarian cell line, prostate cell line, renal cancer cell line and breast cancer cell line) as shown in Table 1. For each compound, dose response curves for each cell line were measured at a minimum of five concentrations at 10 fold dilutions. A protocol of 48 h continuous drug exposure was used and a sulforhodamine B (SRB) protein assay was used to estimate cell viability or growth.

CNS cancer cell lines = test: SRB anticancer assay, panel result
Protocol: as §1

Colon cancer cell lines = test: SRB anticancer assay, panel result
Protocol: as §1

[1] = system: Leukemia cancer cell lines; test: SRB anticancer assay, panel result
Protocol: as §1

[2] = system: Melanoma cancer cell lines; test: SRB anticancer assay, panel result
Protocol: as §1

[3] = system: Non-small cell lung cancer cell lines; test: SRB anticancer assay, panel result
Protocol: as §1

[4] = system: Ovarian cancer cell lines; test: SRB anticancer assay, panel result
Protocol: as §1

[5] = system: Prostate cancer cell lines; test: SRB anticancer assay, panel result; settings: Prostate panel
Protocol: as §1

Renal cancer cell lines = test: SRB anticancer assay, panel result
Protocol: as §1

For COc1cc(OC)cc(-c2cncn2-c2ccc(-c3nc4cc(OC)cc(OC)c4s3)cc2)c1 [Compound 6d, 2-(4-(5-(3,5-Dimethoxyphenyl)-1H-imidazol-1-yl)phenyl)-5,7-dimethoxybenzo[d]thiazole], the GI50 (K-562) was 3.22 µM, the GI50 (HCT-116) was 4.93 µM and the GI50 (SNB-19) was greater than 100 µM. The GI50 (SNB-75) was 3.28 µM, the GI50 (U251) was 4.76 µM and the GI50 (OVCAR-5) was greater than 100 µM. The GI50 (786-0) was 7.6 µM, the GI50 (RXF 393) was 6.58 µM and the GI50 (MDA-MB-231/ATCC; MDA-MB-231/ATCC (row head MDA-MB-)) was 9.01 µM. For the same compound, the GI50 (MDA-MB-231/ATCC; row head printed 231/ATCC (second line of MDA-MB-231/ATCC)) was 5.02 µM, the GI50 (BT-549) was 5.77 µM and the GI50 (SK-MEL-2) was 9.69 µM. The “mean graph midpoint value (MG_MID) of log10 TGI” value (Breast cancer cell lines; Breast panel, total inhibition of net cell growth) was greater than −4.0, the CC50 (Breast cancer cell lines; Homo sapiens, Breast panel, 50% net cell death, read-out: mean graph midpoint value (MG_MID) of Log10 LC50 (converted)) was greater than 100 µM and the GI50 (Breast cancer cell lines; Homo sapiens, Breast panel, read-out: mean graph midpoint value (MG_MID) of Log10 GI50 (converted)) was 4.57 µM. For the same compound, the GI50 (Breast cancer cell lines; Homo sapiens, six breast cancer cell lines, exposure at least 48 h, read-out: GI50, range over the panel) was 3.09 to 9.01 µM, the “mean graph midpoint value (MG_MID) of log10 TGI” value (CNS cancer cell lines; CNS panel, total inhibition of net cell growth) was −4.19 and the CC50 (CNS cancer cell lines; Homo sapiens, CNS panel, 50% net cell death, read-out: mean graph midpoint value (MG_MID) of Log10 LC50 (converted)) was greater than 100 µM. The GI50 (CNS cancer cell lines; Homo sapiens, CNS panel, read-out: mean graph midpoint value (MG_MID) of Log10 GI50 (converted)) was 7.94 µM, the GI50 (CNS cancer cell lines; Homo sapiens, six CNS cancer cell lines, exposure at least 48 h, read-out: GI50, range over the panel) was 2.4 to 11.3 µM and the “mean graph midpoint value (MG_MID) of log10 TGI” value (Colon cancer cell lines; Colon panel, total inhibition of net cell growth) was greater than −4.0. The LC50 (Colon cancer cell lines; Homo sapiens, Colon panel, 50% net cell death, read-out: mean graph midpoint value (MG_MID) of Log10 LC50 (converted)) was greater than 100 µM, the GI50 (Colon cancer cell lines; Homo sapiens, Colon panel, read-out: mean graph midpoint value (MG_MID) of Log10 GI50 (converted)) was 13.2 µM and the GI50 (Colon cancer cell lines; Homo sapiens, seven colon cancer cell lines, exposure at least 48 h, read-out: GI50, range over the panel) was 4.52 to 4.93 µM. The LC50 ([1]; Homo sapiens, Leukemia panel, 50% net cell death, read-out: mean graph midpoint value (MG_MID) of Log10 LC50 (converted)) was greater than 100 µM, the GI50 ([1]; Homo sapiens, Leukemia panel, read-out: mean graph midpoint value (MG_MID) of Log10 GI50 (converted)) was 3.31 µM and the GI50 ([1]; Homo sapiens, six leukemia cancer cell lines, exposure at least 48 h, read-out: GI50, range over the panel) was 3.22 to 3.3 µM. The “mean graph midpoint value (MG_MID) of log10 TGI” value ([1]; Leukemia panel, total inhibition of net cell growth) was greater than −4.0, the LC50 ([2]; Homo sapiens, Melanoma panel, 50% net cell death, read-out: mean graph midpoint value (MG_MID) of Log10 LC50 (converted)) was greater than 100 µM and the GI50 ([2]; Homo sapiens, Melanoma panel, read-out: mean graph midpoint value (MG_MID) of Log10 GI50 (converted)) was 10.5 µM. The GI50 ([2]; Homo sapiens, nine melanoma cancer cell lines, exposure at least 48 h, read-out: GI50, range over the panel) was 1.53 to 9.69 µM, the “mean graph midpoint value (MG_MID) of log10 TGI” value ([2]; Melanoma panel, total inhibition of net cell growth) was greater than −4.0 and the LC50 ([3]; Homo sapiens, Non-small cell lung panel, 50% net cell death, read-out: mean graph midpoint value (MG_MID) of Log10 LC50 (converted)) was greater than 100 µM. For the same compound, the GI50 ([3]; Homo sapiens, Non-small cell lung panel, read-out: mean graph midpoint value (MG_MID) of Log10 GI50 (converted)) was 10.5 µM, the GI50 ([3]; Homo sapiens, nine Non-small cell lung cancer cell lines, exposure at least 48 h, read-out: GI50, range over the panel) was 2.49 to 18.5 µM and the “mean graph midpoint value (MG_MID) of log10 TGI” value ([3]; Non-small cell lung panel, total inhibition of net cell growth) was −4.05. For the same compound, the LC50 ([4]; Homo sapiens, Ovarian panel, 50% net cell death, read-out: mean graph midpoint value (MG_MID) of Log10 LC50 (converted)) was greater than 100 µM, the GI50 ([4]; Homo sapiens, Ovarian panel, read-out: mean graph midpoint value (MG_MID) of Log10 GI50 (converted)) was 7.94 µM and the GI50 ([4]; Homo sapiens, seven ovarian cancer cell lines, exposure at least 48 h, read-out: GI50, range over the panel) was 2.87 to 14.5 µM. For the same compound, the “mean graph midpoint value (MG_MID) of log10 TGI” value ([4]; Ovarian panel, total inhibition of net cell growth) was greater than −4.0, the LC50 ([5]; Homo sapiens, 50% net cell death, read-out: mean graph midpoint value (MG_MID) of Log10 LC50 (converted)) was greater than 100 µM and the GI50 ([5]; Homo sapiens, read-out: mean graph midpoint value (MG_MID) of Log10 GI50 (converted)) was greater than 100 µM. For the same compound, the “mean graph midpoint value (MG_MID) of log10 TGI” value ([5]; total inhibition of net cell growth) was greater than −4.0, the CC50 (Renal cancer cell lines; Homo sapiens, Renal panel, 50% net cell death, read-out: mean graph midpoint value (MG_MID) of Log10 LC50 (converted)) was greater than 100 µM and the GI50 (Renal cancer cell lines; Homo sapiens, Renal panel, read-out: mean graph midpoint value (MG_MID) of Log10 GI50 (converted)) was 12.9 µM. The GI50 (Renal cancer cell lines; Homo sapiens, eight renal cancer cell lines, exposure at least 48 h, read-out: GI50, range over the panel) was 2.13 to 16.8 µM and the “mean graph midpoint value (MG_MID) of log10 TGI” value (Renal cancer cell lines; Renal panel, total inhibition of net cell growth) was greater than −4.0.
